Measurements: the NIST ThermoML archive (doi:10.1016/j.jct.2016.07.040)
± gives the expanded uncertainty stated by the source.

Details: Crystal, Calculated from knudsen effusion weight loss

[Np+4].[O-2].[O-2] [neptunium(IV) oxide]
Details | vapor or sublimation pressure [kPa]
2167.4 K | 0.000178 ± 6.8e-05
2168.5 K | 0.0001787 ± 7.1e-05
2170.6 K | 0.0001874 ± 6.8e-05
2172.1 K | 0.0001888 ± 6.8e-05
2173.8 K | 0.0001909 ± 6.9e-05
2175.3 K | 0.0001994 ± 7.1e-05
2176.6 K | 0.0002036 ± 7.3e-05
2178.6 K | 0.0002068 ± 7.3e-05
2179.8 K | 0.0002135 ± 7.6e-05
2181 K | 0.0002199 ± 7.8e-05
2183.2 K | 0.0002228 ± 7.9e-05
2184.5 K | 0.0002278 ± 7.9e-05
2186.2 K | 0.0002338 ± 7.9e-05
2187.7 K | 0.0002364 ± 8.2e-05
2189.2 K | 0.0002417 ± 8.3e-05
2191.4 K | 0.0002525 ± 8.7e-05
2193.1 K | 0.0002543 ± 8.8e-05
2194.3 K | 0.0002622 ± 9.1e-05
2196 K | 0.0002656 ± 9.1e-05
2197.8 K | 0.0002726 ± 9.3e-05
2199.7 K | 0.0002771 ± 9.7e-05
2200.8 K | 0.0002867 ± 9.8e-05
2202.4 K | 0.0002946 ± 9.8e-05
2204.7 K | 0.0002992 ± 0.0001
2206.6 K | 0.0003045 ± 0.0001
2207.4 K | 0.0003104 ± 0.0001
2209.3 K | 0.0003162 ± 0.00011
2211.2 K | 0.0003286 ± 0.00011
2212.7 K | 0.0003354 ± 0.00011
2214.4 K | 0.0003408 ± 0.00011
2216.4 K | 0.0003502 ± 0.00012
2218.1 K | 0.0003597 ± 0.00012
2218.9 K | 0.0003644 ± 0.00012
2220.7 K | 0.0003741 ± 0.00013
2222.9 K | 0.0003833 ± 0.00013
2224.6 K | 0.0003931 ± 0.00013
2225.9 K | 0.0004013 ± 0.00013
2227.7 K | 0.000407 ± 0.00014
2229.2 K | 0.0004206 ± 0.00014
2231 K | 0.0004254 ± 0.00014
2232.9 K | 0.0004344 ± 0.00014
2233.8 K | 0.0004466 ± 0.00015
2235.8 K | 0.0004515 ± 0.00015
2237.8 K | 0.0004628 ± 0.00015
2239.3 K | 0.0004711 ± 0.00014
2240.7 K | 0.0004792 ± 0.00014
2242.2 K | 0.0004974 ± 0.00015
2243.7 K | 0.0005095 ± 0.00016
2245.8 K | 0.0005148 ± 0.00016
2247.3 K | 0.0005247 ± 0.00016
2249.2 K | 0.00054 ± 0.00017
2250.6 K | 0.0005507 ± 0.00017
2252.1 K | 0.0005593 ± 0.00017
2254.2 K | 0.0005708 ± 0.00017
2255.6 K | 0.0005856 ± 0.00017
2257.4 K | 0.0005944 ± 0.00018
2258.3 K | 0.0006052 ± 0.00019
2258.7 K | 0.0006098 ± 0.00019
2259.2 K | 0.0006132 ± 0.00019
